Source: the supplement of paper PMC12513837
± gives the standard deviation of the averaged measurements.

Compound: CC(=O)N1CCc2c(c(N3CCCc4cc(-c5cnn(C)c5)c(C(F)F)cc43)nn2C2CCC(CN3CCN(c4ccc5c(c4)C(=O)N(C4CCC(=O)NC4=O)C5=O)CC3)CC2)C1 [CBPD-409]
Test: AUC of viability dose-response curve (relative to vehicle, 8 doses up to 10 µM) (fraction); higher = less sensitive (more viable); extreme values may be limits of the assay
Procedure: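 PRISM multiplexed pooled barcoded cell line viability screen at the Broad Institute, 887 cancer cell lines treated with CBPD-409 (p300/CBP PROTAC degrader) at 8 concentrations in threefold dilution, top dose 10 µM. The read-out is the area under the dose-response curve of relative viability versus vehicle (n=3). AUC < 0.3 is called strongly sensitive and AUC > 0.8 resistant.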

| Test System | AUC of viability dose-response curve |
| --- | --- |
| LN464_CENTRAL_NERVOUS_SYSTEM | 0.404 |
| LNCAPCLONEFGC_PROSTATE | 0.249 |
| LNZ308_CENTRAL_NERVOUS_SYSTEM | 0.998 |
| LOUNH91_LUNG | 0.731 |
| LOVO_LARGE_INTESTINE | 0.131 |
| LOXIMVI_SKIN | 0.845 |
| LPS141_SOFT_TISSUE | 1 |
| LS180_LARGE_INTESTINE | 0.961 |
| LS411N_LARGE_INTESTINE | 0.988 |
| LS513_LARGE_INTESTINE | 0.568 |
| LS1034_LARGE_INTESTINE | 0.295 |
| LS_AUTONOMIC_GANGLIA | 0.248 |
| LU99_LUNG | 0.831 |
| LUDLU1_LUNG | 1 |
| LXF289_LUNG | 0.522 |
| M059K_CENTRAL_NERVOUS_SYSTEM | 0.673 |
| MALME3M_SKIN | 0.272 |
| MB1_THYROID | 0.776 |
| MC116_HAEMATOPOIETIC_AND_LYMPHOID_TISSUE | 0.804 |
| MCAS_OVARY | 1 |
| MCC13_SKIN | 1 |
| MCC26_SKIN | 0.98 |
| MCC142_SKIN | 0.969 |
| MCF7_BREAST | 0.701 |
| MDAMB175VII_BREAST | 0.999 |

| Test System | AUC of viability dose-response curve |
| --- | --- |
| MDAMB231_BREAST | 0.701 |
| MDAMB361_BREAST | 0.368 |
| MDAMB435S_SKIN | 1 |
| MDAMB436_BREAST | 0.505 |
| MDAMB453_BREAST | 0.401 |
| MDAMB468_BREAST | 0.97 |
| MDAPCA2B_PROSTATE | 0.266 |
| MEG01_HAEMATOPOIETIC_AND_LYMPHOID_TISSUE | 0.74 |
| MEL285_UVEA | 0.639 |
| MEL290_UVEA | 0.688 |
| MELHO_SKIN | 0.263 |
| MELJUSO_SKIN | 1 |
| MESSA_SOFT_TISSUE | 0.126 |
| MEWO_SKIN | 0.268 |
| MFE280_ENDOMETRIUM | 0.581 |
| MFE296_ENDOMETRIUM | 0.514 |
| MFE319_ENDOMETRIUM | 0.353 |
| MG63_BONE | 1 |
| MHHES1_BONE | 0.842 ± 0.2 |
| MHHNB11_AUTONOMIC_GANGLIA | 0.488 |
| MIAPACA2_PANCREAS | 1 |
| MKN1_STOMACH | 1 |
| MKN7_STOMACH | 0.517 |
| MKN45_STOMACH | 0.238 |
| MKN74_STOMACH | 0.493 |

| Test System | AUC of viability dose-response curve |
| --- | --- |
| MM1S_HAEMATOPOIETIC_AND_LYMPHOID_TISSUE | 0.328 |
| MM127_SKIN | 1 |
| MMNK1_BILIARY_TRACT | 0.479 |
| MOLM13_HAEMATOPOIETIC_AND_LYMPHOID_TISSUE | 0.356 |
| MOLM14_HAEMATOPOIETIC_AND_LYMPHOID_TISSUE | 0.212 |
| MOLP2_HAEMATOPOIETIC_AND_LYMPHOID_TISSUE | 0.555 |
| MOLT3_HAEMATOPOIETIC_AND_LYMPHOID_TISSUE | 1 |
| MOLT13_HAEMATOPOIETIC_AND_LYMPHOID_TISSUE | 1 |
| MOLT16_HAEMATOPOIETIC_AND_LYMPHOID_TISSUE | 0.445 |
| MONOMAC1_HAEMATOPOIETIC_AND_LYMPHOID_TISSUE | 1 |
| MONOMAC6_HAEMATOPOIETIC_AND_LYMPHOID_TISSUE | 0.577 |
| MON_SOFT_TISSUE | 0.486 |
| MP41_UVEA | 0.212 |
| MPP89_PLEURA | 1 |
| MS751_CERVIX | 0.923 |
| MSTO211H_PLEURA | 0.672 |
| NALM6_HAEMATOPOIETIC_AND_LYMPHOID_TISSUE | 0.331 |
| NB1_AUTONOMIC_GANGLIA | 0.112 ± 0.083 |
| NB4_HAEMATOPOIETIC_AND_LYMPHOID_TISSUE | 0.277 |
| NCIH23_LUNG | 0.771 |
| NCIH28_PLEURA | 1 |
| NCIH82_LUNG | 1 |
| NCIH157DM_LUNG | 0.559 |
| NCIH196_LUNG | 0.755 |
| NCIH226_LUNG | 0.519 |

| Test System | AUC of viability dose-response curve |
| --- | --- |
| NCIH292_LUNG | 0.831 |
| NCIH322_LUNG | 0.574 |
| NCIH358_LUNG | 1 |
| NCIH441_LUNG | 0.558 |
| NCIH446_LUNG | 0.445 |
| NCIH460_LUNG | 1 |
| NCIH520_LUNG | 0.861 |
| NCIH522_LUNG | 0.942 |
| NCIH524_LUNG | 1 |
| NCIH596_LUNG | 1 |
| NCIH647_LUNG | 1 |
| NCIH650_LUNG | 0.606 |
| NCIH661_LUNG | 0.567 |
| NCIH727_LUNG | 0.875 |
| NCIH747_LARGE_INTESTINE | 1 |
| NCIH838_LUNG | 0.893 |
| NCIH841_LUNG | 0.855 |
| NCIH1048_LUNG | 0.878 |
| NCIH1092_LUNG | 1 |
| NCIH1299_LUNG | 0.79 |
| NCIH1341_LUNG | 1 |
| NCIH1355_LUNG | 1 |
| NCIH1373_LUNG | 1 |
| NCIH1435_LUNG | 1 |
| NCIH1437_LUNG | 0.895 |

| Test System | AUC of viability dose-response curve |
| --- | --- |
| NCIH1563_LUNG | 0.445 |
| NCIH1568_LUNG | 0.958 |
| NCIH1573_LUNG | 0.699 |
| NCIH1581_LUNG | 0.347 |
| NCIH1623_LUNG | 0.92 |
| NCIH1648_LUNG | 0.448 |
| NCIH1650_LUNG | 0.583 |
| NCIH1651_LUNG | 1 |
| NCIH1693_LUNG | 0.949 |
| NCIH1703_LUNG | 0.78 |
| NCIH1792_LUNG | 0.59 |
| NCIH1793_LUNG | 0.838 |
| NCIH1838_LUNG | 0.758 |
| NCIH1876_LUNG | 1 |
| NCIH1915_LUNG | 0.697 |
| NCIH1944_LUNG | 1 |
| NCIH1975_LUNG | 0.862 |
| NCIH2004RT_SOFT_TISSUE | 1 |
| NCIH2009_LUNG | 0.596 |
| NCIH2023_LUNG | 1 |
| NCIH2030_LUNG | 1 |
| NCIH2052_PLEURA | 0.444 |
| NCIH2087_LUNG | 0.834 |
| NCIH2110_LUNG | 0.703 |
| NCIH2122_LUNG | 0.654 |

| Test System | AUC of viability dose-response curve |
| --- | --- |
| NCIH2126_LUNG | 1 |
| NCIH2170_LUNG | 1 |
| NCIH2171_LUNG | 1 |
| NCIH2172_LUNG | 0.62 |
| NCIH2196_LUNG | 1 |
| NCIH2228_LUNG | 0.91 |
| NCIH2347_LUNG | 0.648 |
| NCIH2444_LUNG | 1 |
| NCIH2452_PLEURA | 1 |
| NCO2_HAEMATOPOIETIC_AND_LYMPHOID_TISSUE | 0.243 |
| NIHOVCAR3_OVARY | 1 |
| NOMO1_HAEMATOPOIETIC_AND_LYMPHOID_TISSUE | 0.279 |
| NOZ_LIVER | 1 |
| NP2_CENTRAL_NERVOUS_SYSTEM | 0.868 |
| NP3_CENTRAL_NERVOUS_SYSTEM | 0.802 |
| NP5_CENTRAL_NERVOUS_SYSTEM | 0.488 |
| NUDHL1_HAEMATOPOIETIC_AND_LYMPHOID_TISSUE | 0.67 |
| NUGC3_STOMACH | 1 |
| NUGC4_STOMACH | 0.344 |
| NZOV9_OVARY | 1 |
| OACM51_OESOPHAGUS | 1 |
| OAW42_OVARY | 0.814 |
| OC314_OVARY | 0.619 |
| OC316_OVARY | 0.486 |
| OCIAML2_HAEMATOPOIETIC_AND_LYMPHOID_TISSUE | 0.551 |
